Patent publication US9051342B2 (priority 2004, dated 2015)

Experiments:
[1] = test system: luciferase with nonsense mutation in a specific codon context (UGAA, UGAC, UAAA or UAAC); assay: Western blot of luciferase protein produced by suppression of the nonsense mutation; format: cell-based, Human embryonic kidney cells (293 cells); settings: 293 cells treated with compound, continuation lines list further codon contexts
From the text: Nonsense suppression activity in an assay as described above is shown in the Table 3 below, for a construct with a UGA nonsense mutation at position 190, followed by a cytosine nucleotide in-frame, (UGAC); for a construct with UAG nonsense mutation at position 190, followed by an adenine nucleotide in-frame, (UAGA); for a construct with […] nonsense mutation at position 190, followed by an adenine nucleotide in-frame, (UAAA); and a construct with a UAA nonsense mutation at position 190, followed by an cytosine nucleotide in-frame, (UAAC). Also included in Table 3 is a column (“western blot”) indicating whether treatment of cells with the indicated compound suppresses the nonsense mutation in a specific codon context (UGAA, UGAC, UAAA or UAAC) in luciferase and results in production of luciferase protein as determined by a positive signal on a western blot. A positive result in the western blot assay is indicated by a “+” and the nonsense codon and context of the codon that is suppressed.
Another assay of the present invention can evaluate compounds that promote nonsense mutation suppression. The luciferase constructs described above in FIG. 1 are engineered to harbor two epitope tags in the N-terminus of the luciferase protein. Based on luciferase protein production, these constructs qualitatively assess the level of translation-readthrough. The presence of the full-length luciferase protein produced by suppression of the premature termination codon is measured by immunoprecipitation of the suppressed luciferase protein (using an antibody against a His tag) followed by western blotting using an antibody against the second epitope (the Xpress™ epitope; Invitrogen®; Carlsbad, Calif.). These constructs are depicted in FIG. 2.
Cells that harbor the constructs of FIG. 2 show increased full-length protein production when treated with a compound of the present invention. After treatment for 20 hours, cells containing the constructs of FIG. 2 are collected and an antibody recognizing the His epitope is used to immunoprecipitate the luciferase protein. Following immunoprecipitation, western blotting is performed using the antibody to the Xpress™ epitope (Invitrogen®; Carlsbad, Calif.) to detect the truncated luciferase (produced when no nonsense suppression occurs) and to detect the full-length protein (produced by suppression of the nonsense codon). Treatment of cells with a test compound produces full-length protein and not a readthrough protein (See e.g., FIG. 3). The readthrough protein is produced if suppression of the normal termination codon occurs. Compounds of the present invention suppress the premature, i.e. nonsense mutation, but not the normal termination codon in the luciferase mRNA.

| Compound | melting point [°C] | further results |
| --- | --- | --- |
| O=C(O)c1ccc(-c2ccn(-c3ccc(C(F)(F)F)cc3)c2)cc1 [Compound 105, 4-[1-(4-Trifluoromethyl-phenyl)-1H-pyrrol-3-yl]-benzoic acid] | 315 to 317 | western blot: production of luciferase protein; + and the codon context that is suppressed ([1]; UAAA codon context construct): UAAA; western blot: production of luciferase protein; + and the codon context that is suppressed ([1]; UGAA codon context construct): +; UGAA;; western blot: production of luciferase protein; + and the codon context that is suppressed ([1]; UGAC codon context construct): UGAC; |
| Cc1ccc(-n2cc(-c3cccc(C(=O)O)c3)cn2)cc1C [Compound 237, 3-[1-(3,4-Dimethyl-phenyl)-1H-pyrazol-4-yl]-benzoic acid] | 196 to 197 | western blot: production of luciferase protein; + and the codon context that is suppressed [1]: +; UGAC |
| O=C(O)c1ccc(-n2ccc(-c3ccccc3)n2)cc1 [Compound 222, 4-(3-Phenyl-pyrazol-1-yl)-benzoic acid] | 244 to 245 |  |
| COc1ccc(-c2cn(-c3ccc(C(=O)O)cc3)nn2)cc1OC [Compound 272, 4-[4-(3,4-Dimethoxy-phenyl)-[1,2,3]triazol-1-yl]-benzoic acid] | 253 to 254 |  |
| O=C(O)c1ccc(-c2cnn(-c3ccc(Cl)cc3)c2)cc1 [Compound 234, 4-[1-(4-Chloro-phenyl)-1H-pyrazol-4-yl]-benzoic acid] | 259 to 261 |  |
| O=C(O)c1ccc(-c2ccn(-c3ccccc3)c2)cc1 [Compound 130, 4-(1-Phenyl-1H-pyrrol-3-yl)-benzoic acid] | 239 to 241 |  |
| COc1cccc2c1Cc1cn(-c3ccc(C(=O)O)cc3)nc1-2 [Compound 187, 4-(5-Methoxy-4H-indeno[1,2-c]pyrazol-2-yl)-benzoic acid] | 311 to 313 |  |
| COc1cccc2c1CCc1cn(-c3cccc(C(=O)O)c3)nc1-2 [Compound 147, 3-(6-Methoxy-4,5-dihydro-benzo[g]indazol-2-yl)-benzoic acid] | 232 to 233 |  |
| Nc1ccc(-c2cnn(-c3cccc(C(=O)O)c3)c2)cc1 [Compound 108, 3-[4-(4-Amino-phenyl)-pyrazol-1-yl]-benzoic acid] | 209 to 210 |  |
| COc1ccc(-c2cnn(-c3cccc(C(=O)O)c3)c2)cc1 [Compound 47, 3-[4-(4-Methoxy-phenyl)-pyrazol-1-yl]-benzoic acid] | 238 to 239 |  |
| CC(C)c1ccc(-n2ccc(-c3cccc(C(=O)O)c3)c2)cc1 [Compound 6, 3-[1-(4-Isopropyl-phenyl)-1H-pyrrol-3-yl]-benzoic acid] | 210 to 215 |  |
| O=C(O)c1ccc(-n2cc(-c3cnccn3)cn2)cc1 [Compound 120, 4-(4-Pyrazin-2-yl-pyrazol-1-yl)-benzoic acid] | 319 to 321 |  |
| O=C(O)c1cccc(-c2ccn(-c3ccc(OC(F)(F)F)cc3)n2)c1 [Compound 66, 3-[1-(4-Trifluoromethoxy-phenyl)-1H-pyrazol-3-yl]-benzoic acid] | 171 to 174 | western blot: production of luciferase protein; + and the codon context that is suppressed ([1]; UAAC codon context construct): UAAC; western blot: production of luciferase protein; + and the codon context that is suppressed ([1]; UGAC codon context construct): +UGAC; |

The next lines start with results.

| melting point [°C] | Compound | further results |
| --- | --- | --- |
| 283 to 285 | O=C(O)c1cccc(-n2cc(-c3ccc(F)cc3F)cn2)c1 [Compound 103, 3-[4-(2,4-Difluoro-phenyl)-pyrazol-1-yl]-benzoic acid] |  |
| 202 to 204 | O=C(O)c1cccc(-c2ccn(-c3ccccc3)n2)c1 [Compound 65, 3-(1-Phenyl-1H-pyrazol-3-yl)-benzoic acid] |  |
| 236 to 238 | Cc1nc(-c2cccc(C(=O)O)c2)nn1-c1cccc(F)c1 [Compound 34, 3-[1-(3-Fluoro-phenyl)-5-methyl-1H-[1,2,4]triazol-3-yl]-benzoic acid] |  |
| 225 to 227 | O=C(O)c1cccc(-c2ccn(-c3ccc(C(F)(F)F)cc3)n2)c1 [Compound 67, 3-[1-(4-Trifluoromethyl-phenyl)-1H-pyrazol-3-yl]-benzoic acid] |  |
| > 310 | O=C(O)c1cccc(-c2nn(-c3cccc(F)c3)c(=O)[nH]2)c1 [Compound 42, 3-[1-(3-Fluoro-phenyl)-5-oxo-4,5-dihydro-1H-[1,2,4]triazol-3-yl]-benzoic acid] |  |
| 240 to 241 | O=C(O)c1cccc(-n2cc3c(n2)-c2cccc(OC(F)F)c2C3)c1 [Compound 185, 3-(5-Difluoromethoxy-4H-indeno[1,2-c]pyrazol-2-yl)-benzoic acid] |  |
